Data: BindingDB's records for doi:10.1074/jbc.M807947200 (National Yang-Ming University, 2009)

Legend:
Genome polyprotein = Genome polyprotein (Coxsackievirus B3 (strain Nancy), UniProt P03313); experiment: Enzyme Inhibition Assay; details: pH 6.5; 25 °C
Procedure: (§1) Peptidomimetic inhibitors against CVB3 3Cpro and SARS-CoV 3CLpro. The inhibition constant of SARS 3CLpro was analyzed with reverse-phase HPLC using a C-18 column.

[1] = target: Replicase polyprotein 1ab (Severe acute respiratory syndrome coronavirus, UniProt P0C6X7); experiment: Enzyme Inhibition Assay; details: pH 6.5; 25 °C
Procedure: as §1

Sequence of Genome polyprotein (P03313 1541-1723 limits assumed): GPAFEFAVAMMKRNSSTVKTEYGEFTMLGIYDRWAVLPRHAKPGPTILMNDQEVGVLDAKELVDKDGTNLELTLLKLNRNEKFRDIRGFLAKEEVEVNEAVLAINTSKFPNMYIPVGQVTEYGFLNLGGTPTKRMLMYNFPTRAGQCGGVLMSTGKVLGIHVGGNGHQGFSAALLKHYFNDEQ

| Structure (SMILES) | Ki (Genome polyprotein) [nM] | Ki [1] [nM] |
| --- | --- | --- |
| CC(=O)CC=C(C[C@@H]1CCNC1=O)NC(=O)[C@H](CC(C)C)NC(=O)[C@H](CNC(=O)C(C)(C)C)NC(=O)OCc1ccccc1 [TG-0204998] | 800 |  |
| CC(C)C[C@H](NC(=O)[C@@H](NC(=O)OCc1ccccc1)C(C)OC(C)(C)C)C(=O)NC(=CCC(=O)C1CC1)C[C@@H]1CCNC1=O (stereo partly specified) [TG-0205486] | 400 |  |
| C[C@H](OC(C)(C)C)[C@H](NC(=O)OCc1ccccc1)C(=O)N[C@@H](CC1CCCCC1)C(=O)N[C@H](C=O)C[C@@H]1CCNC1=O [benzyl N-[(1S,2S)-2-(tert-butoxy)-1-{[(1S)-2-cyclohexyl-1-{[(2S)-1-oxo-3-[(3S)-2-oxopyrrolidin-3-yl]propan-2-yl]carbamoyl}ethyl]carbamoyl}propyl]carbamate] | 2500 | 54 |
| CCOC(=O)/C=C/[C@H](C[C@@H]1CCNC1=O)NC(=O)[C@H](CC(C)C)NC(=O)[C@@H](NC(=O)OCc1ccccc1)C(C)OC(C)(C)C (stereo partly drawn) [ethyl (2E,4S)-4-[(2S)-2-[(2S,3S)-2-{[(benzyloxy)carbonyl]amino}-3-(tert-butoxy)butanamido]-4-methylpentanamido]-5-[(3S)-2-oxopyrrolidin-3-yl]pent-2-enoate] | 1500 | 58 |
